According to patent US10858344B2, “Hydantoin containing deoxyuridine triphosphatase inhibitors” (CV6 Therapeutics (NI) Limited, priority 2016, dated 2020):

Target: recombinant human deoxyuridine nucleotidohydrolase (dUTPase) (Homo sapiens (Human), UniProt P33316)
Assay: fluorescence-based dUTPase inhibition assay
Assay type: biochemical
Conditions: for % relative inhibition vs. positive control: mean over three concentrations, typically 100, 50 and 25 μmol/L, compared to in-run positive control
Source text: Recombinant human deoxyuridine nucleotidohydrolase (dUTPase) is expressed and purified as described in Ladner R D, Carr S A, Huddleston M J, McNulty D E, Caradonna S J. J Biol Chem. 1996 Mar. 29; 271(13):7752-7. All drugs stocks are aliquoted and diluted as appropriate prior to use. The oligonucelotide primer, templates and fluorophore- and quencher-labeled detection probes are synthesized by Integrated DNA Technologies (Coralville, Iowa), subjected to polyacrylamide gel electrophoresis purification and reconstituted in Omnipur sterile nuclease-free water (EMD Chemicals USA, Gibbstown N.J.) at a stock concentration of 100 μmol/L. The two non-emissive (dark) quenching molecules incorporated into the detection probes include the Iowa black fluorescein quencher (IBFQ; absorption max 531 nm) and ZEN (non-abbreviation; absorption max 532 nm). The fluorescent label utilized is 6-FAM (5′-carboxyfluorescein; excitation max.=494 nm, emission max.=520 nm). Probes are further diluted to a working stock of 10 μmol/L and aliquoted to avoid repeated freeze/thaw cycles. AmpliTaq Gold DNA Polymerase, GeneAmp 10×PCR Buffer 2, MgCl2 and MicroAmp Optical 96-well Reaction Plates are purchased from Applied Biosystems (Carlsbad, Calif.). dNTPs are purchased individually at stock concentrations of 100 mmol/L from New England Biolabs at HPLC-certified >99% purity (Ipswich, Mass.).
Reaction mixtures contained primer, probe and template at an equimolar final concentration of 0.4 μmol/L. Magnesium chloride (MgCl2) is included at a final concentration of 2 mmol/L. Non-limiting dNTPs are included in the reaction mix in excess at a final concentration of 100 μmol/L (dUTP/dTTP is excluded). AmpliTaq Gold DNA polymerase is added at 0.875 U/reaction, 2.5 μl of 10×PCR buffer 2 added and nuclease-free ddH2O added to a final reaction volume of 25 μl. For dUTP inhibition analysis, the volume of ddH2O is further modified to accommodate an additional 1 μl of dUTPase (10 ng/μl) and 1 μl of inhibitor or DMSO control. Thermal profiling and fluorescence detection is performed using a customized thermal program on board a Roche Lightcycler LC480 Instrument II. For analysis of dNTPs, the thermal profile consisted of an 8 min 37° C. step followed by a 10 min 95° C. step to ‘hot-start’ the Taq polymerase and a primer extension time of up to 30 min at 60° C. Raw fluorescence spectra for 6-FAM is measured at specified time intervals to follow assay progression on board a Roche LightCycler 480 Software Version 1.5 and exported and analyzed in Microsoft Excel (Microsoft, Redmond Wash.) and Prism (GraphPad Software, La Jolla Calif.). Fluorescence values for blank reactions (limiting dNTP omitted) are subtracted to give normalized fluorescence units (NFU) to account for background fluorescence.
Test compounds are screened in a fluorescence-based assay. The assay employs a DNA polymerase-based approach utilizing an oligonucleotide template with 3 distinct regions: a 3′ primer binding region, a mid-template dUTP/thymidine triphosphate (TTP) detection region and a 5′ 6-[…] (FAM)-labeled probe binding region that incorporates a black hole quenching moiety. During the reaction, the probe and primer hybridize to the oligonucleotide template to form the template:primer:probe complex. When Taq polymerase binds to the primer in the TPP complex and dUTP is present, successful extension of the nascent strand occurs and the inherent 5′ to 3′ exonuclease activity of Taq polymerase cleaves and displaces the 6-FAM-labeled probe in a 5′ to 3′ direction, releasing the 6-FAM fluorophore from its proximity to the three quenchers. This displacement effectively disrupts the Förster resonance energy transfer (FRET) and the resulting fluorescence detected upon excitation is directly proportional to the amount of the dUTP available in the assay for incorporation. […]

Sequence of recombinant human deoxyuridine nucleotidohydrolase (dUTPase) (P33316 other isoform, or with tags, fused parts or gaps): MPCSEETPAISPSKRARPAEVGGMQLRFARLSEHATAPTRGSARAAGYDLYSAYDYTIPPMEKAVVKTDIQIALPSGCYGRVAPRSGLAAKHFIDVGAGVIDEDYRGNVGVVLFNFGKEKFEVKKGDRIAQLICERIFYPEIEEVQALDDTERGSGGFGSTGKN

| % relative inhibition vs. positive control [%] | IC50 [µM] | SMILES |
| --- | --- | --- |
| 50 | – | C[C@@H](NS(=O)(=O)CC/C=C/CN1C(=O)NC(=O)C1(C)C)c1ccc(F)c(OCC2CC2)c1 [Example 112, (R,E)-N-(1-(3-(cyclopropylmethoxy)-4-fluorophenyl)ethyl)-5-(5,5-dimethyl-2,4-dioxoimidazolidin-1-yl)pent-3-ene-1-sulfonamide] |
| 20 | 3.75 | C[C@@H](NS(=O)(=O)CCCCCN1CC(=O)N(C(=O)OC(C)(C)C)C1=O)c1ccc(F)c(OCC2CC2)c1 [Example 93] |
| 172 | – | O=C1CN(COCCCS(=O)(=O)NC2(c3ccc(F)c(OCC4CC4)c3)CC2)C(=O)N1 [compound 120, N-(1-(3-(cyclopropylmethoxy)-4-fluorophenyl)cyclopropyl)-3-((2,4-dioxoimidazolidin-1-yl)methoxy)propane-1-sulfonamide] |
| 30 | 2.5 | C[C@@H](NS(=O)(=O)CCCOCN1CC(=O)NC1=O)c1cccc(OC2CCCC2)c1 [Example 84, (R)—N-(1-(3-(cyclopentyloxy)phenyl)ethyl)-3-((2,4-dioxoimidazolidin-1-yl)methoxy)propane-1-sulfonamide] |
| 40 | – | C[C@H]1C(=O)NC(=O)N1C/C=C/CCS(=O)(=O)NC1(c2ccc(F)c(OCC(C)(C)O)c2)CC1 [compound 122, (S,E)-N-(1-(4-fluoro-3-(2-hydroxy-2-methylpropoxy)phenyl)cyclopropyl)-5-(5-methyl-2,4-dioxoimidazolidin-1-yl)pent-3-ene-1-sulfonamide] |
| 105 | – | C[C@H]1C(=O)NC(=O)N1C/C=C/CCS(=O)(=O)NC1(c2cccc(OCC3CC3)c2)CC1 [123a, (S,E)-N-(1-(3-(cyclopropylmethoxy)phenyl)cyclopropyl)-5-(5-methyl-2,4-dioxoimidazolidin-1-yl)pent-3-ene-1-sulfonamide] |
| 19 | 4 | C[C@@H](NS(=O)(=O)CCCCCN1CC(=O)NC1=O)c1ccc(F)c(NCC2CC2)c1 [Example 96, (R)—N-(1-(3-((cyclopropylmethyl)amino)-4-fluorophenyl)ethyl)-5-(2,4-dioxoimidazolidin-1-yl)pentane-1-sulfonamide] |
| 0 | > 25 | C[C@@H](NS(=O)(=O)CCCCCN1CC(=O)NC1=O)c1ccc(F)c(OCc2nn[nH]n2)c1 [Example 102, (R)—N-(1-(3-((2H-tetrazol-5-yl)methoxy)-4-fluorophenyl)ethyl)-5-(2,4-dioxoimidazolidin-1-yl)pentane-1-sulfonamide] |
| 152 | – | C[C@@H](NS(=O)(=O)CCCCCC1CC(=O)NC1=O)c1ccc(F)c(OCC2CC2)c1 (stereo partly drawn) [compound 126, N—((R)-1-(3-(cyclopropylmethoxy)-4-fluorophenyl)ethyl)-5-(2,5-dioxopyrrolidin-3-yl)pentane-1-sulfonamide] |
| 93 | 0.8 | C[C@@H](NS(=O)(=O)CCCCCN1CC(=O)NC1=O)c1ccc(F)c(OCC2CCC2)c1 [Example 88, (R)—N-(1-(3-(cyclobutylmethoxy)-4-fluorophenyl)ethyl)-5-(2,4-dioxoimidazolidin-1-yl)pentane-1-sulfonamide] |
| 23 | – | CC1(C)C(=O)NC(=O)N1CCCCCS(=O)(=O)NC1(c2ccc(F)c(OCC3CC3)c2)CC1 [119b, N-(1-(3-(cyclopropylmethoxy)-4-fluorophenyl)cyclopropyl)-5-(5,5-dimethyl-2,4-dioxoimidazolidin-1-yl)pentane-1-sulfonamide] |
| 5 | 14 | C[C@@H](NS(=O)(=O)CCCCCN1CC(=O)NC1=O)c1ccc(F)c(OCC2CCOCC2)c1 [Example 100, (R)-5-(2,4-dioxoimidazolidin-1-yl)-N-(1-(4-fluoro-3-((tetrahydro-2H-pyran-4-yl)methoxy)phenyl)ethyl) pentane-1-sulfonamide] |
| 37 | 2 | CC(Oc1cc([C@@H](C)NS(=O)(=O)CCCCCN2CC(=O)NC2=O)ccc1F)C1CC1 (stereo partly drawn) [Example 90, N—((1R)-1-(3-(1-cyclopropylethoxy)-4-fluorophenyl)ethyl)-5-(2,4-dioxoimidazolidin-1-yl)pentane-1-sulfonamide] |
| 1 | 150 | C[C@@H](NS(=O)(=O)CCCCCN1CC(=O)NC1=O)c1ccc(F)c(OC[C@@H]2CCCN2C)c1 [Example 91, 5-(2,4-dioxoimidazolidin-1-yl)-N—((R)-1-(4-fluoro-3-(((S)-1-methylpyrrolidin-2-yl)methoxy)phenyl)ethyl)pentane-1-sulfonamide] |
| 164 | – | C[C@@H](NS(=O)(=O)CCCOCN1CC(=O)NC1=O)c1cccc(OCC2CC2)c1 [Example 115, (R)—N-(1-(3-(cyclopropylmethoxy)phenyl)ethyl)-3-((2,4-dioxoimidazolidin-1-yl)methoxy)propane-1-sulfonamide] |
| 1 | 150 | C[C@@H](NS(=O)(=O)CCCCCN1CC(=O)NC1=O)c1ccc(F)c(OS(=O)(=O)C(F)(F)F)c1 [Example 94, (R)-5-(1-((5-(2,4-dioxoimidazolidin-1-yl)pentyl)sulfonamido)ethyl)-2-fluorophenyl trifluoromethanesulfonate] |
| 12 | 6.25 | C[C@H](c1ccc(F)c(OCC2CC2)c1)N(C)S(=O)(=O)CCCCCN1CC(=O)NC1=O [Example 92, (R)—N-(1-(3-(cyclopropylmethoxy)-4-fluorophenyl)ethyl)-5-(2,4-dioxoimidazolidin-1-yl)-N-methylpentane-1-sulfonamide] |

| SMILES | % relative inhibition vs. positive control [%] | IC50 [µM] |
| --- | --- | --- |
| O=C1CN(CCCCCS(=O)(=O)NC(c2ccc(F)c(OCC3CC3)c2)C2CC2)C(=O)N1 (stereo not shown) [Example 104, N-(cyclopropyl (3-(cyclopropylmethoxy)-4-fluorophenyl)methyl)-5-(2,4-dioxoimidazolidin-1-yl) pentane-1-sulfonamide] | 57 | – |
| CC(C)COc1cc([C@@H](C)NS(=O)(=O)CCC=CCN2C(=O)NC(=O)C2(C)C)ccc1F [Example 113, (R)-5-(5,5-dimethyl-2,4-dioxoimidazolidin-1-yl)-N-(1-(4-fluoro-3-isobutoxyphenyl)ethyl)pent-3-ene-1-sulfonamide] | 8 | – |
| O=C1CN(C/C=C/CCCNS(=O)(=O)c2cccc(OCC3CC3)c2)C(=O)N1 [Example 79, (E)-3-(cyclopropylmethoxy)-N-(6-(2,4-dioxoimidazolidin-1-yl)hex-4-en-1-yl)benzenesulfonamide] | 139 | – |
| CC(C)COc1cc(C2(NS(=O)(=O)CC/C=C/CN3C(=O)NC(=O)C3(C)C)CC2)ccc1F [118a, (E)-5-(5,5-dimethyl-2,4-dioxoimidazolidin-1-yl)-N-(1-(4-fluoro-3-isobutoxyphenyl)cyclopropyl)pent-3-ene-1-sulfonamide] | 19 | – |
| CC(C)COc1cc(C2(NS(=O)(=O)CCCCCN3C(=O)NC(=O)C3(C)C)CC2)ccc1F [118b, 5-(5,5-dimethyl-2,4-dioxoimidazolidin-1-yl)-N-(1-(4-fluoro-3-isobutoxyphenyl)cyclopropyl)pentane-1-sulfonamide] | 19 | – |
| C[C@@H](NS(=O)(=O)CCCCCN1CC(=O)NC1=O)c1ccc(F)c(OCC(=O)O)c1 [Example 101, (R)-2-(5-(1-((5-(2,4-dioxoimidazolidin-1-yl)pentyl)sulfonamido)ethyl)-2-fluorophenoxy)acetic acid] | 4 | 20 |
